Measured values published in ChEMBL document CHEMBL4359816, “Discovery and Optimization of Quinolinone Derivatives as Potent, Selective, and Orally Bioavailable Mutant Isocitrate Dehydrogenase 1 (mIDH1) Inhibitors” (J Med Chem, 2019).
pIC50: −log10 of the molar value. In brackets after ≈: the same amount, converted by molar mass.

Tests used:
[1] = Metabolic stability in human liver microsomes assessed as compound remaining after 30 mins; format: ADME, Microsome; conditions: read-out: Stability
[2] = Metabolic stability in mouse liver microsomes assessed as compound remaining after 30 mins; format: ADME, Microsome; conditions: read-out: Stability
[3] = Kinetic solubility of the compound; format: physicochemical; conditions: read-out: Kinetic_solubility
[4] = biological target: Isocitrate dehydrogenase [NADP] cytoplasmic (Homo sapiens, UniProt O75874); assay: Inhibition of wild-type IDH1 (unknown origin) by NADPH fluorescence based assay
[5] = Metabolic stability in rat liver microsomes assessed as compound remaining after 30 mins; format: ADME, Microsome; conditions: read-out: Stability
[6] = biological target: Isocitrate dehydrogenase [NADP] cytoplasmic (Homo sapiens, UniProt O75874, R132L); assay: Inhibition of human Myc-DDK-tagged IDH1 R132L mutant expressed in human U87MG cells assessed as reduction in 2-HG levels after 24 hrs by RapidFire high-throughput mass spectrometry assay; format: cell-based
MDR1 (P-gp) = assay: Efflux ratio of apparent permeability from basolateral side to apical side over apical side to basolateral side in MDCK cells harboring MDR1 (unknown origin); format: ADME, cell-based, Canis lupus familiaris; conditions: dog
[7] = Protein binding in dog plasma; format: ADME, cell-free, Canis lupus familiaris; conditions: read-out: PPB (converted)
[8] = Half-life in rat at 1 mg/kg, iv or 5 mg/kg, po; format: ADME, organism-based; conditions: in vivo
[9] = Total AUC (infinity) in rat at 1 mg/kg, iv or 5 mg/kg, po; format: ADME, organism-based; conditions: in vivo
[10] = fAUC (infinity) in rat at 1 mg/kg, iv or 5 mg/kg, po; format: ADME, organism-based; conditions: in vivo
[11] = Half-life in mouse at 1 mg/kg, iv or 5 mg/kg, po; format: ADME, organism-based; conditions: in vivo
[12] = Total Cmax in mouse at 1 mg/kg, iv or 5 mg/kg, po; format: ADME, organism-based; conditions: in vivo
[13] = Total AUC (infinity) in mouse at 1 mg/kg, iv or 5 mg/kg, po; format: ADME, organism-based; conditions: in vivo
[14] = fAUC (infinity) in dog at 0.5 mg/kg, iv; format: ADME, organism-based, Canis lupus familiaris; conditions: in vivo
Mus musculus [15] = format: functional; conditions: BALB/c, HCT-116, po
Mus musculus [16] = assay: In vivo inhibition of IDH1 R132C mutant in human HCT116 cells xenografted in BALB/c nude mouse assessed as reduction in tumor 2-HG level at 25 mg/kg, po bid administered at 12 hrs intervals and measured at <= 12 hrs post last dose by LC-MS analysis relative to control; format: functional; conditions: HCT-116, po
Mus musculus [17] = format: functional; conditions: BALB/c, HCT-116, po; remark: listed apart in the source
[18] = biological target: Isocitrate dehydrogenase [NADP], mitochondrial (Homo sapiens, UniProt P48735, R172K); assay: Inhibition of IDH2 R172K mutant (unknown origin)
CYP2C19 = CYP2C19 (Homo sapiens, UniProt P33261); assay: Inhibition of CYP2C19 (unknown origin) at 10 uM relative to control; format: ADME
CYP1A2 = CYP1A2 (Homo sapiens, UniProt P05177); assay: Inhibition of CYP1A2 (unknown origin) at 10 uM relative to control; format: ADME
Cytochrome P450 3A4 [19] = biological target: T1, Cytochrome P450 3A4 (Homo sapiens, UniProt P08684); assay: Time dependent inhibition of CYP3A4 (unknown origin) at <5 uM using midazolam as substrate; format: ADME
Cytochrome P450 3A4 [20] = biological target: T1, Cytochrome P450 3A4; assay: Time dependent inhibition of CYP3A4 (unknown origin) at <5 uM pre-incubated for 30 mins followed by midazolam substrate addition in absence of NADPH; format: ADME
[21] = biological target: alpha1 adrenergic receptor (Homo sapiens, UniProt P35348); assay: Displacement of [3H] prazosin from human alpha1 adrenergic receptor at 1 uM measured after 60 mins by scintillation counting method relative to control; conditions: probe [3H] prazosin
Chain of alpha1 adrenergic receptor (P35348 whole entry): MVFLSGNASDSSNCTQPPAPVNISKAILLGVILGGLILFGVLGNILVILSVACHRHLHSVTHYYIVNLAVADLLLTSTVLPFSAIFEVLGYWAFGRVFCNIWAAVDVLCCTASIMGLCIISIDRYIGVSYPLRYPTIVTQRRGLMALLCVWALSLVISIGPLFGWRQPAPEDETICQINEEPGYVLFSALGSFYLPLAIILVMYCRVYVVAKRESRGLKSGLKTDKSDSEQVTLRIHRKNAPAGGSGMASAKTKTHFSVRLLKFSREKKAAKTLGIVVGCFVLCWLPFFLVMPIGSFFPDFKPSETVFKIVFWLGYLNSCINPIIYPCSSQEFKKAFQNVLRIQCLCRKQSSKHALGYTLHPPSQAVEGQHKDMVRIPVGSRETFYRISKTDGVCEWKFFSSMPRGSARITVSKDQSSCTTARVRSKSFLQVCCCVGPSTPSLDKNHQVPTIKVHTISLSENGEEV

T1 sequence (P08684 whole entry): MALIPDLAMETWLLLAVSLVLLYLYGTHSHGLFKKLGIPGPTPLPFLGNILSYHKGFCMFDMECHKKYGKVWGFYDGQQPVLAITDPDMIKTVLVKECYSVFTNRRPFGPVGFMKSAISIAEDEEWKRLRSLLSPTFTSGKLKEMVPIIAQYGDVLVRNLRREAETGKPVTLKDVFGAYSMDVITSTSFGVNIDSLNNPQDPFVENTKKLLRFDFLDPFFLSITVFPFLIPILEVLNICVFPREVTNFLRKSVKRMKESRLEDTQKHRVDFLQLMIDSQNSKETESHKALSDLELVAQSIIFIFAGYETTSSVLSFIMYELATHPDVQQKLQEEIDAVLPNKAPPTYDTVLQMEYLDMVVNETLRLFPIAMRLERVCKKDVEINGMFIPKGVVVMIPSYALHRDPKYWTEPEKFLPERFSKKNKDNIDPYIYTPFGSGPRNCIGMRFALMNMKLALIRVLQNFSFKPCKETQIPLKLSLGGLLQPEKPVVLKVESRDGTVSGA
Chain of Isocitrate dehydrogenase [NADP] cytoplasmic (Homo sapiens, UniProt O75874) (O75874 whole entry): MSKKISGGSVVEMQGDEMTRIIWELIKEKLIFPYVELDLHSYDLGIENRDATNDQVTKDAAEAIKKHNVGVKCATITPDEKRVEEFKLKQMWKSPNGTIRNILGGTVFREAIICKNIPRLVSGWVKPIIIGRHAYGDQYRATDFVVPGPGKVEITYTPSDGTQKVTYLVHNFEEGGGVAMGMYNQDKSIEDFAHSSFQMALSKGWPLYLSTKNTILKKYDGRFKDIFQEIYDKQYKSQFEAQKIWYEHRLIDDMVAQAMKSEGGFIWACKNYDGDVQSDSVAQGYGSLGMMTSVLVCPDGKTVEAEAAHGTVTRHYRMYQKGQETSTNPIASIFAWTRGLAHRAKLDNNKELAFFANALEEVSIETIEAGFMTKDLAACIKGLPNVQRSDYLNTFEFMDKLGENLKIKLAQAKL
Chain of Isocitrate dehydrogenase [NADP], mitochondrial (P48735 40-452 R172K limits assumed): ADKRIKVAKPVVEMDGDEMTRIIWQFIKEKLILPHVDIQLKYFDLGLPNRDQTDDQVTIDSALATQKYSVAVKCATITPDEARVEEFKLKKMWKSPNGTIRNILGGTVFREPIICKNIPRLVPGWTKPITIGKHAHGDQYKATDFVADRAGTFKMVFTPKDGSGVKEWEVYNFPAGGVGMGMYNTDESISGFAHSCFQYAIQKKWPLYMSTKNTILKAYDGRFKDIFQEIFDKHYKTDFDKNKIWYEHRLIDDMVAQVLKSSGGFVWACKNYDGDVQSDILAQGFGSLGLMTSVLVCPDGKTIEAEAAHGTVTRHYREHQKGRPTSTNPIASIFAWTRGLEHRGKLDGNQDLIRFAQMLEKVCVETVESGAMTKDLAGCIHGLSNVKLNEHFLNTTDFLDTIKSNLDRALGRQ
Chain of Isocitrate dehydrogenase [NADP] cytoplasmic (Homo sapiens, UniProt O75874, R132L) (O75874 2-414 R132L limits assumed): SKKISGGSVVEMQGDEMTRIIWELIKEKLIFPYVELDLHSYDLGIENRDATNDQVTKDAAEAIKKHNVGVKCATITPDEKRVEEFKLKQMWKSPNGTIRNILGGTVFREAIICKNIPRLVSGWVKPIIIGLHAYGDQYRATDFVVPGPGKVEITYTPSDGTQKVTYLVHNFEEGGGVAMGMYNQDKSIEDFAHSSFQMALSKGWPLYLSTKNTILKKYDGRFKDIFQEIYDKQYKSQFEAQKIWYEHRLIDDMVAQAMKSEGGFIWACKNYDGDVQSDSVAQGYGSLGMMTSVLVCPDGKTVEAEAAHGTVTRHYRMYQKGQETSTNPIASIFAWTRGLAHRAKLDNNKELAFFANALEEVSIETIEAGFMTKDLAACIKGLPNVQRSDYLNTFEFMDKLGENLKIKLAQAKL
Chain of CYP1A2 (P05177 whole entry): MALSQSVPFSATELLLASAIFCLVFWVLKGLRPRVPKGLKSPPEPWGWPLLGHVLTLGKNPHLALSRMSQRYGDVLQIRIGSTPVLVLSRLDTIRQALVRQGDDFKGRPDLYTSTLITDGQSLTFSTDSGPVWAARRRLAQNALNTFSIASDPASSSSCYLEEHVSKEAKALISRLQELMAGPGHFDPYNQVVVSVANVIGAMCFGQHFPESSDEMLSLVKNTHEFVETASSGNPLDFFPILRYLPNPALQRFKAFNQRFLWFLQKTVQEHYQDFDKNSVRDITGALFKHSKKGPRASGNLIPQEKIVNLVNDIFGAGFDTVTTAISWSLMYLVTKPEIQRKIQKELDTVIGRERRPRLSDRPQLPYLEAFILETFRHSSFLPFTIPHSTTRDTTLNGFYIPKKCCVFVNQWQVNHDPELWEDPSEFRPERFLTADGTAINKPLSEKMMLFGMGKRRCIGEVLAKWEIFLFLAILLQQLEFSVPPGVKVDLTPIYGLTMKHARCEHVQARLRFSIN
Chain of CYP2C19 (P33261 whole entry): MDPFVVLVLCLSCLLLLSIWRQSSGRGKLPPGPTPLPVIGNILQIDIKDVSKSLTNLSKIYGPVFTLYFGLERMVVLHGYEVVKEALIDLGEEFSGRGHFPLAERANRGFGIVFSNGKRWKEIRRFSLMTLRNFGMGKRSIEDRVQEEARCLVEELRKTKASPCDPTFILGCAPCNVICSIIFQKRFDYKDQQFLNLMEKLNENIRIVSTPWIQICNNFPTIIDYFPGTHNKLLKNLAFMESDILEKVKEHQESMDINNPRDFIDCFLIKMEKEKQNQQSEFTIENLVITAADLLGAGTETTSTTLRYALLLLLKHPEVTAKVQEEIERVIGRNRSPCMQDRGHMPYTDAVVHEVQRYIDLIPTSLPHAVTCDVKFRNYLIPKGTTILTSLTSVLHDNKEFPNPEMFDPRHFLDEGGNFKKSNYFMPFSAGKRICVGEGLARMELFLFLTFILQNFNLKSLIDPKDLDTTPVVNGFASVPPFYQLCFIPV

COc1nc(N[C@@H](C)c2cc3cc(Cl)ccc3[nH]c2=O)ncc1C#N
remaining at 0.5 h [1]: 100 to 108% | remaining at 0.5 h [2]: 100 to 106% | solubility kinetic [3]: 10.5 µM (≈ 3.74 µg/mL) | pIC50 [4]: 4.46 | remaining at 0.5 h [5]: 94 to 100% | pIC50 [6]: 7.22 | efflux ratio (MDR1 (P-gp)): 1.19 | fraction unbound [7]: 0.0369 | half-life [8]: 2.2 h | AUC(0-inf) [9]: 22.6 µM·h | fAUC [10]: 0.459 µM·h | half-life [11]: 10 h | Cmax [12]: 5.9 µM | AUC(0-inf) [13]: 107 µM·h | fAUC [14]: 0.123 µM·h | inhibition in vivo at 25 mg/kg (Mus musculus [15]): > 90% | inhibition in vivo at 25 mg/kg (Mus musculus [16]): > 90% | inhibition in vivo at 12.5 mg/kg (Mus musculus [17]): > 90% | pIC50 [18]: 4.47 | inhibition at 10 µM (CYP2C19): 22.7% | inhibition at 10 µM (CYP1A2): 35.4% | TDI (Cytochrome P450 3A4 [19]): Not Active | TDI (Cytochrome P450 3A4 [20]): Not Active | inhibition at 1 h, 1 µM [21]: > 50%
